Results as given in BigSolDB 2.1.

COC(=O)[C@H]1[C@H]2C[C@@H]3c4[nH]c5cc(OC)ccc5c4CCN3C[C@H]2C[C@@H](OC(=O)c2cc(OC)c(OC)c(OC)c2)[C@@H]1OC
Conditions	solubility (mole fraction)
in PEG-400, 298.15 K	0.00144
in PEG-400, 308.15 K	0.00206
in PEG-400, 318.15 K	0.00281
in PEG-400, 328.15 K	0.00373
in PEG-400, 338.15 K	0.0047

solubility (mole fraction)
Conditions	in ethanol	in ethyl acetate	in ethylene glycol	in isopropanol	in propylene glycol	in transcutol	in water
298.15 K	9.16e-06	0.000521	5.3e-05	2.43e-05	2.88e-05	0.000769	9.71e-07
308.15 K	1.25e-05	0.000608	7.04e-05	3.16e-05	3.38e-05	0.000906	1.25e-06
318.15 K	1.59e-05	0.000723	9.28e-05	4.02e-05	4e-05	0.0011	1.57e-06
328.15 K	2.07e-05	0.000868	0.000114	4.95e-05	4.63e-05	0.00137	1.9e-06
338.15 K	2.53e-05	0.00104	0.000143	6.07e-05	5.5e-05	0.00161	2.25e-06
